Laboratory results reported in EP2787958B1, “CHELIDONIUM MAJUS EXTRACTS AND THEIR USE IN THE TREATMENT OF SKIN DISORDERS AND PROMOTION OF SKIN REGENERATION” (priority 2011, dated 2013).
Where two headings read alike, the source gives them in different places.

Experiments:
interleukin 1β (IL-1β) = assay: Inflammatory cytokines in cell supernatant (Mosaic ELISA microarray): IL-1β; format: cell-based, Human; conditions: for IL-1β ng/(ml* No. of cells from photo) ± SD: 24 hours; for IL-1β production (effect in words): 1-10 µM
Protocol: (§1) The inflammatory cytokines, CD40 ligand (CD40L), interferon γ (INF-γ), interleukin 1α (IL-1α), interleukin 1β (IL-1β), interleukin 6 (IL-6), interleukin 8 (IL-8), interleukin 17 (IL-17) and tumour necrosis factor α (TNF-α) were determined qualitatively and quantitatively. Each measurement was performed in duplicate using a Mosaic™ ELISA protein microarray assay system from R&D System in accordance with the supplier's instructions. Furthermore, with the aim of obtaining a correlation model between light signal intensity and cytokine concentration, a calibration curve using 6 concentrations was performed for each of them. Analysis of the data was performed using the dedicated Q-View™ Imager software package from Quansys Biosciences

interleukin 6 (IL-6) = assay: Inflammatory cytokines in cell supernatant (Mosaic ELISA microarray): IL-6; format: cell-based, Human; conditions: for IL-6 ng/(ml* No. of cells from photo) ± SD: 24 hours; for IL-6 production (effect in words): 1-10 µM
Protocol: as §1

[1] = Anti-radical activity (decay of the DPPH radical); format: biochemical; conditions: for Anti-radical (skin protective): 24 hours
Protocol: With regard to assays aimed at evaluating anti-radical activity, a chemical test was used where the decay of the diphenylpicrylhydrazyl (DPPH) radical is assessed in the absence or in the presence of the test substances. Indeed, the DPPH radical is used to test the ability of substances to act as free radical scavengers. DPPH in solution has a purple colour with a maximum absorbance peak at 517 nm which changes to yellow-colourless when this radical extracts a hydrogen atom from a radical scavenger to give rise to the reduced form DPPH-H. The assay has been conducted in quadruplicate in 96 well microplates (SARSTEDT Tissue Culture Plate 96-well flat bottom cell+). 50 µl of an ethanol solution of the test substance at 2X concentration and then 50 µl of a 200 µM solution of DPPH (MW 168,18, Aldrich 2,2-di(4-tert-octylphenyl)-1-picrylhydrazyl, free radical Lot# MKBF7574V Cat N° 257621-100 mg) have been added to each well of the microplate. A positive control consisting of 0.1 mM vitamin C and a negative control consisting of ethanol alone were included in each microplate. After 30 minutes from the addition of DPPH, photographs of the plates were taken (Canon PowerShot A610 5.0 Mpixels) and read spectrophotometrically at 530 nm.
Based on the analysis of the results reported in Table 9, some substances were selected for further characterisation of their anti-radical activity. For the selected substances, dose-activity curves were obtained and the IC50 value were computed using a non-linear regression model with the Hill equation at variable slope. Such substances had been selected due to both their anti-radical potential and the easiness of their isolation/production. The selection of substances was made in view of cosmetics applications. Moreover their activity on human dermal fibroblasts (HDF) is expected to be useful also for the development of dermatological medications. The selected substances are discussed below.

HDF cells [2] = assay: Summary of uses and toxic effects deduced from the cell assays (Table 1); format: cell-based, Human
Protocol: Antiradical (skin protective): this is deduced from the free radical scavenger effects.
Revitalizing: this is deduced from the increased mitochondrial dehydrogenase effect.
Cytoprotective, with regard to oxidative damage (antioxidant, anti-inflammatory and anti-ageing): this is deduced from antagonising the stimulation of IL-1β and/or IL-6 induced by 100 µM H2O2 and from the absence of changes in cell morphology similar to the ones due to cell senescence.
Wound healing: this is deduced from the effect of inhibiting the production of IL-1β and by the effect of stimulating cell proliferation under standard growth conditions.
Cytotoxicity: this is deduced from the effect of reducing mitochondrial dehydrogenase activity or from the presence of morphologies characteristic of cell senescence.
Irritation: this is deduced from the effect of increased production of IL-6 and/or IL-1β under standard growth conditions.
Said uses in the fields of medicine and cosmetics or the toxic effects of the substances of the invention at a given dosage, for 24 hours, are summarized in Table 1 below.

[3] = system: collagen produced by HDF cells; assay: Quantity of collagen produced by the cells (elution of Sirius Red); conditions: 1-10 µM (1 µM and 10 µM)
[4] = system: Human dermal fibroblasts (HDF); assay: Mitochondrial dehydrogenase activity (WST-1 formazan assay) in HDF cells; conditions: for Revitalizing agent: 24 hours; for activity at 1 µM / activity at 10 µM: Homo sapiens, Fibroblast, read-out: % mitochondrial dehydrogenase activity ± SD
HDF cells [5] = assay: Evaluation of cell proliferation (counting of Sirius Red stained cells in photographs); conditions: for No. of cells from photo ± SD: 24 hours
[6] = Dose 1 µm (coptisine: 1 pm [sic])
[7] = Dose 1 µm (coptisine: 1 pm [sic]), 24 hours

c1cc2c(c3c1C[C@H]1c4cc5c(cc4CCN1C3)OCO5)OCO2 [stylopine]
IL-1β ng/(ml* No. of cells from photo) ± SD (interleukin 1β (IL-1β); 1 µM, 34 ng/ml TGF-β1): 97±3 ng/(ml* No. of cells from photo) | IL-1β ng/(ml* No. of cells from photo) ± SD (interleukin 1β (IL-1β); 1 µM, 100 µM H2O2): 100±4 ng/(ml* No. of cells from photo) | IL-1β ng/(ml* No. of cells from photo) ± SD (interleukin 1β (IL-1β); 1 µM, Standard conditions): 159±10 ng/(ml* No. of cells from photo) | IL-1β ng/(ml* No. of cells from photo) ± SD (interleukin 1β (IL-1β); 10 µM, 34 ng/ml TGF-β1): 109±14 ng/(ml* No. of cells from photo) | IL-1β ng/(ml* No. of cells from photo) ± SD (interleukin 1β (IL-1β); 10 µM, 100 µM H2O2): 88±10 ng/(ml* No. of cells from photo) | IL-1β ng/(ml* No. of cells from photo) ± SD (interleukin 1β (IL-1β); 10 µM, Standard conditions): 186±7 ng/(ml* No. of cells from photo) | IL-1β production (effect in words) (interleukin 1β (IL-1β); 34 ng/ml TGF-β1): antagonizes the production of IL-1β | IL-1β production (effect in words) (interleukin 1β (IL-1β); 100 µM H2O2): antagonizes the production of IL-1β | IL-1β production (effect in words) (interleukin 1β (IL-1β); standard conditions): inhibits the production of IL-1β | IL-6 ng/(ml* No. of cells from photo) ± SD (interleukin 6 (IL-6); 1 µM, 34 ng/ml TGF-β1): 447±8 ng/(ml* No. of cells from photo) | IL-6 ng/(ml* No. of cells from photo) ± SD (interleukin 6 (IL-6); 1 µM, 100 µM H2O2): 583±25 ng/(ml* No. of cells from photo) | IL-6 ng/(ml* No. of cells from photo) ± SD (interleukin 6 (IL-6); 1 µM, Standard conditions): 868±62 ng/(ml* No. of cells from photo) | IL-6 ng/(ml* No. of cells from photo) ± SD (interleukin 6 (IL-6); 10 µM, 34 ng/ml TGF-β1): 528±33 ng/(ml* No. of cells from photo) | IL-6 ng/(ml* No. of cells from photo) ± SD (interleukin 6 (IL-6); 10 µM, 100 µM H2O2): 449±2 ng/(ml* No. of cells from photo) | IL-6 ng/(ml* No. of cells from photo) ± SD (interleukin 6 (IL-6); 10 µM, Standard conditions): 961±38 ng/(ml* No. of cells from photo) | IL-6 production (effect in words) (interleukin 6 (IL-6); 34 ng/ml TGF-β1): antagonizes the production of IL-6 | IL-6 production (effect in words) (interleukin 6 (IL-6); 100 µM H2O2): antagonizes the production of IL-6 | IL-6 production (effect in words) (interleukin 6 (IL-6); standard conditions): inhibits the production of IL-6 | % DPPH activity ([1]; 1 mM, 30 minutes): 113% | Anti-radical (skin protective) [1, 6]: No | Anti-radical (skin protective) ([1]; Dose 10 µm): No | Cytotoxic (HDF cells [2]): No | Irritant (HDF cells [2]): No | Anti-fibrotic (prevention of scar formation, also from acne) (HDF cells [2]; [7]): Yes (↓collagen, ↓IL-6, ↓IL-1β) | Cytoprotective (antioxidant, anti-inflammatory and anti-ageing; useful also in the treatment of acne) (HDF cells [2]; [7]): Yes (↓IL-6, ↓IL-1β) | Wound-healing (HDF cells [2]; [7]): Yes (↑profil) | Anti-fibrotic (prevention of scar formation, also from acne) (HDF cells [2]; Dose 10 µm, 24 hours): Yes (↓collagen, ↓IL-6. ↓IL-1β) | Cytoprotective (antioxidant, anti-inflammatory and anti-ageing; useful also in the treatment of acne) (HDF cells [2]; Dose 10 µm, 24 hours): Yes (↓IL-6, ↓IL-1β) | Cytotoxic (HDF cells [2]; Dose 10 µm, 24 hours): No | Irritant (HDF cells [2]; Dose 10 µm, 24 hours): No | Wound-healing (HDF cells [2]; Dose 10 µm, 24 hours): No | concentrations at which no toxic (cytotoxic and irritant) effects are shown (HDF cells [2]; exposure for 24 hours): less than or equal to 10 µM | collagen production (effect in words) ([3]; 34 ng/ml TGF-β1): antagonizes the stimulation of collagen induced by 34 ng/ml TGF-β1 | collagen production (effect in words) ([3]; 100 µM H2O2): tendency to inhibit collagen production | concentrations below which no significant effects on mitochondrial dehydrogenase activity are shown [4]: below 1 µM | mitochondrial dehydrogenase activity (effect in words) ([4]; 10 µM, exposure time 42 h): increased with respect to the control | mitochondrial dehydrogenase activity (effect in words) ([4]; 100 µM): less marked stimulation of mitochondrial dehydrogenase activity | Revitalizing agent [4, 6]: Yes** | Revitalizing agent ([4]; Dose 10 µm): Yes | activity at 1 µM ([4]; 18 h): 105 ± 9.5% | activity at 10 µM ([4]; 18 h): 107 ± 3% | activity at 1 µM ([4]; 42 h): 100 ± 15.8% | activity at 10 µM ([4]; 42 h): 151 ± 12.8% | activity at 1 µM ([4]; 46 h): 95.7% | activity at 10 µM ([4]; 46 h): 138 ± 23.9% | mitochondrial dehydrogenase activity (effect in words) ([4]; between 1 and 100 µM, exposure time 18 h): non-significant tendency to stimulate mitochondrial dehydrogenase activity in a dose-dependent manner | mitochondrial dehydrogenase activity (effect in words) ([4]; fibroblast cells, higher doses): inhibit mitochondrial dehydrogenase activity | mitochondrial dehydrogenase activity (effect in words) ([4]; fibroblast cells, low dosage): stimulate mitochondrial dehydrogenase activity | cell proliferation (effect in words) (HDF cells [5]; 1 µM): tendency to stimulate cell proliferation | No. of cells from photo ± SD (HDF cells [5]; 1 µM, 34 ng/ml TGF-β1): 237±19 | No. of cells from photo ± SD (HDF cells [5]; 1 µM, 100 µM H2O2): 240±12 | No. of cells from photo ± SD (HDF cells [5]; 1 µM, Standard conditions): 234± 7 | No. of cells from photo ± SD (HDF cells [5]; 10 µM, 34 ng/ml TGF-β1): 210±17 | No. of cells from photo ± SD (HDF cells [5]; 10 µM, 100 µM H2O2): 249±8 | No. of cells from photo ± SD (HDF cells [5]; 10 µM, Standard conditions): 183±12
